This is an account of results in patent US9233978B2, “6-fused heteroaryldihydropyrimidines for the treatment and prophylaxis of hepatitis B virus infection” (Hoffmann-La Roche Inc., priority 2014, dated 2016).

In one data set the test system is HBV. Kind of data set: Anti-HBV activity in vitro, HepG2.2.15 cells, extracellular HBV DNA by qPCR. It is filed as cell-based. To be noted: Hepatitis B virus, HepG2.2.15, 120 h, HepG2.2.15 cells; HBV replication inhibited by 50%, extracellular HBV DNA by qPCR; five days after compound treatment; read-out: EC50. The method in brief: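 HBV-producing HepG2.2.15 cells were seeded and left overnight at 37 °C, then treated with half-log serial compound dilutions at a final 0.5% DMSO. After 5 days, viral DNA was extracted from the supernatant and extracellular HBV DNA was quantified by qPCR.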
(In general: Quantitative PCR measures a nucleic acid by following its amplification.)

A short description of data set [1]: Cytotoxicity in HepDE19 cells (CCK-8) and selectivity index. To be noted: human, HepDE19 cells; CCK-8 cell viability; five days after treatment. It is filed as cell-based. Summed up: (§1)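 HepDE19 cells (DMEM-F12, 10% FBS) were treated with compound for five days, then given CCK-8 for 2 h at 37 °C and read at OD450 and OD630. CC50 is the concentration killing 50% of host cells. Selectivity index is CC50/EC50.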

The test system of a further data set is HepDE19 cells. Described as above. It is filed as cell-based. The conditions noted are these: CC50 (HepDE19) value / EC50 (HepG2.2.15) value. Summed up:
as §1

Another data set has as its system CYP3A4. Kind of data set: Cytochrome P450 induction screening assay, mRNA induction in human cryopreserved hepatocytes. It counts as in vitro ADME. The conditions noted are these: CYP3A4 mRNA relative induction, 24 hours, test compound up to 10 μM. The procedure: Human cryopreserved hepatocytes (Life Technologies, Carlsbad, USA) were thawed and cultured in collagen I coated 96-well plates with a density of 52,000 cells/well. After attachment, medium was changed and cells were pre-cultured overnight in hepatocyte maintenance medium (HMM; Lonza, Switzerland).
Test compounds were dosed to the cells next morning at an indicated concentration (up to 10 μM) in HMM culture media containing gentamycin and a constant 0.1% DMSO. Similarly, dilutions of the positive inducer compounds omeprazole (prototypical inducer of human CYP1A2; final concentrations: 1 and 10 μM), phenobarbital (prototypical inducer of human CYP2B6; final concentrations: 100 and 1000 μM) and rifampicin (prototypical inducer of human CYP3A4; final concentrations: 1 and 10 μM) were prepared from 1000 fold DMSO stock solutions in HMM containing gentamycin. Medium change was then performed and cells were exposed for 24 hours to test compounds, positive inducer compounds, or vehicle (0.1% DMSO), respectively.
At the end of the compound exposure period, medium was removed and cells lysed using 100 μL/well MagNA Pure LC RNA isolation tissue lysis buffer (Roche Diagnostics AG, Rotkreuz, Switzerland). Plates were then sealed and frozen at −80° C. until further workup.
mRNA isolation was performed using the MagNA Pure 96 system (Roche Diagnostics AG, Rotkreuz, Switzerland) and the respective cellular RNA large volume kit (Roche Diagnostics AG, Rotkreuz, Switzerland) from thawed samples diluted 1:1 with PBS. The volume of the cell lysis and an elution volume of 100 μL were used. 20 μl of the resulting mRNA suspension was then used for reverse transcription using 20 μl of the transcript or first stand cDNA synthesis kit (Roche prime Supply, Mannheim, Germany). The resulting cDNA was diluted with 40 μl of H2O before using for qRT-PCR. qRT-PCR was performed by using the forward and the reverse primer, the corresponding UPL (all from Microsynth, Balgach, Switzerland) and the Taqman Fast advanced master mix (Applied Biosystems), on an ABI 7900 machine (Applied Biosystems).
qRT-PCR Ct-values for the respective P450s were put into relation to the Ct-value of RN18S1 (microsynth, Balgach, Switzerland) of the same sample. Doing so, a respective Δct-value was calculated. Using the average of all Δct-values for the vehicle control samples, a ΔΔct-value was calculated for each sample (ΔΔct-value(sample)=Δct-value(sample)−average of Δct-value of all vehicle controls). The fold induction of the respective sample was calculated as 2^(−ΔΔct). The individual fold induction values were then averaged per treatment condition (usually n=3 biological replicates).
Relative induction values to the respective positive inducer compound condition (10 μM omeprazole for CYP1A2; 1000 μM Phenobarbital for CYP2B6; 10 μM rifampicin for CYP3A4) were then calculated from the fold induction values as follows: Relative induction (%)=100×(T−V)/(P−V)

Data set [2] can be described thus: Human microsomal metabolic stability. To be noted: human microsomes 0.5 mg/mL, 1 μM test compound, NADPH, 37° C., pH 7.4, 0-30 minutes. It counts as in vitro ADME. The method in brief: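 1 μM compound with 0.5 mg/mL human liver microsomal protein in 100 mM phosphate pH 7.4 at 37° C, started with 1 mM NADPH or a NADPH-regenerating system. Sampled at 0–30 min, quenched in cold methanol with tolbutamide internal standard; remaining parent quantified by LC-MS/MS.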

Another data set in a line: Lysa solubility. It is filed as physicochemical. To be noted: phosphate buffer, pH 6.5, aqueous buffer, thermodynamic from solid, 0.05 M phosphate buffer (pH 6.5). Summed up:
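Duplicate samples dried from 10 mM DMSO stocks, taken up in 0.05 M phosphate buffer pH 6.5, stirred 1 h, shaken 2 h and left overnight. Filtrate and 1/10 dilution quantified by direct UV or HPLC-UV, in μg/mL; above 80% of the calculated maximum, reported as greater than that value.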

Converted amounts (≈) assume the structure as drawn. Some results are limits rather than exact numbers.

What is called EC50 is the midpoint of the concentration-response curve. A word on the CC50: it is the concentration that lowers cell viability or growth by half. High values mean better tolerance by the cells, low ones harm at low concentration. For the molecule `COC(=O)C1=C(CN2CCN3C(=O)NC[C@@H]3C2)NC(c2nccs2)=N[C@H]1c1ccc(F)cc1Cl` [Example 11, Methyl (4R)-6-[[(8aR)-3-oxo-1,2,5,6,8,8a-hexahydroimidazo[1,5-a]pyrazin-7-yl]methyl]-4-(2-chloro-4-fluoro-phenyl)-2-thiazol-2-yl-1,4-dihydropyrimidine-5-carboxylate], the concentration giving a half-maximal response (EC50) with HBV amounted to 0.001 µM. The molecule also showed a CC50 at 5 days in data set [1] of 52 µM. For the same molecule, the “Selectivity index (CC50/EC50)” value with HepDE19 cells was found to be 30635. Further, the “% of Positive control (10 μM Rifampicin)” value with CYP3A4 was 17%.
As to `COC(=O)C1=C(CN2CCN3C(=O)N(CC(C)(C)C(=O)O)C[C@@H]3C2)NC(c2nccs2)=N[C@H]1c1ccc(F)c(F)c1C` [Example 43, 3-[(8aS)-7-[[(4S)-4-(3,4-difluoro-2-methyl-phenyl)-5-methoxycarbonyl-2-thiazol-2-yl-1,4-dihydropyrimidin-6-yl]methyl]-3-oxo-5,6,8,8a-tetrahydro-1H-imidazo[1,5-a]pyrazin-2-yl]-2,2-dimethyl-propanoic acid], the EC50 with HBV is 0.006 µM. In addition, the “Human Microsomal Clearance” value in data set [2] is 3.1 mL/min/kg. In addition, the “% of Positive control (10 μM Rifampicin)” value with CYP3A4 is listed as 0.2%.
The term solubility (thermodynamic) denotes solubility found after equilibrating the solid with the medium. As for `COC(=O)C1=C(CN2CCN3C(=O)N(C4CC4)CC3(CC(=O)O)C2)NC(c2nccs2)=N[C@H]1c1ccc(F)cc1Cl` (stereo partly drawn) [Example 30, 2-[7-[[(4R)-4-(2-chloro-4-fluoro-phenyl)-5-methoxycarbonyl-2-thiazol-2-yl-1,4-dihydropyrimidin-6-yl]methyl]-2-cyclopropyl-3-oxo-1,5,6,8-tetrahydroimidazo[1,5-a]pyrazin-8a-yl]acetic acid], in the data set with HBV, the half-maximal effective concentration (EC50) came to 0.095 µM. In addition, the “Human Microsomal Clearance” value in data set [2] was 1.7 mL/min/kg. Further, the thermodynamic solubility in “Lysa solubility” came to 610 µg/mL (≈ 1010 µM). Further, in the data set with CYP3A4, the “% of Positive control (10 μM Rifampicin)” value worked out at 7.3%.
With `CCOC(=O)C1=C(CN2CCN3C(=O)N(c4cccc(C(=O)O)c4)C[C@@H]3C2)NC(c2nccs2)=N[C@H]1c1cccc(F)c1Cl` [Example 27, (R)-6-[(S)-2-(3-Carboxy-phenyl)-3-oxo-hexahydro-imidazo[1,5-a]pyrazin-7-ylmethyl]-4-(2-chloro-3-fluoro-phenyl)-2-thiazol-2-yl-1,4-dihydro-pyrimidine-5-carboxylic acid ethyl ester], the EC50 with HBV is 0.003 µM. In addition, in the data set with CYP3A4, the “% of Positive control (10 μM Rifampicin)” value is reported as 0.2%.
On to `CCOC(=O)C1=C(CN2CCN3C(=O)N(CC(C)(C)C(=O)O)C[C@@H]3C2)NC(c2nccs2)=N[C@H]1c1ccc(F)c(F)c1C` [Example 22, 3-[(8aS)-7-[[(4S)-4-(3,4-difluoro-2-methyl-phenyl)-5-ethoxycarbonyl-2-thiazol-2-yl-1,4-dihydropyrimidin-6-yl]methyl]-3-oxo-5,6,8,8a-tetrahydro-1H-imidazo[1,5-a]pyrazin-2-yl]-2,2-dimethyl-propanoic acid], for which the EC50 with HBV was determined as 0.003 µM. The molecule also showed a 50% cytotoxic concentration (CC50) at 5 days in data set [1] of more than 100 µM. The “Selectivity index (CC50/EC50)” value with HepDE19 cells is on record as more than 34482. In the data set on CYP3A4, the “% of Positive control (10 μM Rifampicin)” value is 0%.
For the molecule `COC(=O)C1=C(CN2CCN3C(=O)N(CC4(C(=O)O)CC4)C[C@@H]3C2)NC(c2nccs2)=N[C@H]1c1ccc(F)cc1Cl` [Example 35, 1-[[(8aS)-7-[[(4R)-4-(2-chloro-4-fluoro-phenyl)-5-methoxycarbonyl-2-thiazol-2-yl-1,4-dihydropyrimidin-6-yl]methyl]-3-oxo-5,6,8,8a-tetrahydro-1H-imidazo[1,5-a]pyrazin-2-yl]methyl]cyclopropanecarboxylic acid], the EC50 in the data set with HBV came to 0.011 µM. The cytotoxic concentration (CC50) at 5 days in data set [1] was more than 100 µM. The “Selectivity index (CC50/EC50)” value in the data set on HepDE19 cells is more than 9259. Further, the “Human Microsomal Clearance” value in data set [2] is listed as 0.3 mL/min/kg. This molecule had a solubility (thermodynamic) in the data set “Lysa solubility” of more than 754 µg/mL.
For `COC(=O)C1=C(CN2CCN3C(=O)N(C4CC4)C[C@@H]3[C@H]2C(=O)O)NC(c2nccs2)=N[C@H]1c1ccc(F)cc1Cl` (racemic) [Example 45, 7-[[(4R)-4-(2-chloro-4-fluoro-phenyl)-5-methoxycarbonyl-2-thiazol-2-yl-1,4-dihydropyrimidin-6-yl]methyl]-2-cyclopropyl-3-oxo-5,6,8,8a-tetrahydro-1H-imidazo[1,5-a]pyrazine-8-carboxylic acid], the EC50 with HBV turned out to be 0.026 µM. The molecule further gave a thermodynamic solubility in “Lysa solubility” of more than 690 µg/mL. Further, in the data set on CYP3A4, the “% of Positive control (10 μM Rifampicin)” value came to 20%.
Turning to `COC(=O)C1=C(CN2CCN3C(=O)N(Cc4ccc(C(=O)O)cc4)CC3C2)NC(c2nccs2)=N[C@H]1c1ccc(F)cc1Cl` (stereo partly drawn) [Example 65, (R)-6-[2-(4-Carboxy-benzyl)-3-oxo-hexahydro-imidazo[1,5-a]pyrazin-7-ylmethyl]-4-(2-chloro-4-fluoro-phenyl)-2-thiazol-2-yl-1,4-dihydro-pyrimidine-5-carboxylic acid methyl ester], in the data set with HBV, the EC50 was 0.009 µM. The CC50 at 5 days in data set [1] is more than 100 µM. For the same molecule, in the data set on HepDE19 cells, the “Selectivity index (CC50/EC50)” value is recorded as more than 11111. The “Human Microsomal Clearance” value in data set [2] turned out to be 6.2 mL/min/kg. This molecule also displayed a solubility (thermodynamic) in “Lysa solubility” of 194 µg/mL (≈ 304 µM).
As to `COC(=O)C1=C(CN2CCN3C(=O)N(C4CC5(CC(C(=O)O)C5)C4)C[C@@H]3C2)NC(c2nccs2)=N[C@H]1c1ccc(F)cc1Cl` (stereo partly drawn) [Example 79, 2-[(8aS)-7-[[(4R)-4-(2-chloro-4-fluoro-phenyl)-5-methoxycarbonyl-2-thiazol-2-yl-1,4-dihydropyrimidin-6-yl]methyl]-3-oxo-5,6,8,8a-tetrahydro-1H-imidazo[1,5-a]pyrazin-2-yl]spiro[3.3]heptane-6-carboxylic acid], in the data set on HBV, the EC50 is 0.008 µM. In data set [1], this molecule registered a CC50 at 5 days of 52 µM. Further, the “Selectivity index (CC50/EC50)” value with HepDE19 cells stood at 6500. In addition, the “Human Microsomal Clearance” value in data set [2] is 3.6 mL/min/kg. In the data set “Lysa solubility”, this molecule came in with a solubility (thermodynamic) of 180 µg/mL (≈ 280 µM).
Taken in the same sequence, the figures for `COC(=O)C1=C(CN2CCN3C(=O)N(CC(C)(C)C(=O)O)C[C@@H]3C2)NC(c2nccs2)=N[C@H]1c1cccc(F)c1Cl` [Example 41, 3-[(8aS)-7-[[(4R)-4-(2-chloro-3-fluoro-phenyl)-5-methoxycarbonyl-2-thiazol-2-yl-1,4-dihydropyrimidin-6-yl]methyl]-3-oxo-5,6,8,8a-tetrahydro-1H-imidazo[1,5-a]pyrazin-2-yl]-2,2-dimethyl-propanoic acid] were 0.014 µM, more than 100 µM, more than 7194, 2.0 mL/min/kg and more than 804 µg/mL.
Consider `COC(=O)C1=C(CN2CCN3C(=O)N(c4ccc(C(=O)O)cc4)C[C@@H]3C2)NC(c2nccs2)=N[C@H]1c1ccc(F)cc1Cl` [Example 25, (R)-6-[(S)-2-(4-Carboxy-phenyl)-3-oxo-hexahydro-imidazo[1,5-a]pyrazin-7-ylmethyl]-4-(2-chloro-4-fluoro-phenyl)-2-thiazol-2-yl-1,4-dihydro-pyrimidine-5-carboxylic acid methyl ester], for which the EC50 in the data set with HBV stood at 0.002 µM. The “Human Microsomal Clearance” value in data set [2] amounted to 0.4 mL/min/kg. For the same molecule, the “% of Positive control (10 μM Rifampicin)” value in the data set with CYP3A4 amounted to 0%.
